Test results: patent publication US8623861B2, “Method of treating demyelination diseases” (priority 2006, dated 2014)

Tests used:
C57BL/6 mice [1] = details: all groups (con, que, cup, cup+que); data not shown
Procedure: (§1) To test whether quetiapine can protect mouse brain from cuprizone-induced demyelination, 8-week old mice were fed a diet of milled LabDiet® rodent chow (PMI nutrition international LLC, Brentwood, Mo., USA) containing 0.2% cuprizone for 5 weeks (w/w) (Sigma-Aldrich, St. Louis, Mo., USA) as previously described (Morell et al., 1998). […] The study included the following 4 groups (6-8 animals/group): group 1: control, fed with regular chow (con); group 2: pre-administrated with quetiapine (10 mg/kg/day in drinking water) for 1 week, then followed by 5 weeks of quetiapine administration with normal diet (que); group 3: fed for 5 weeks on a cuprizone-containing diet (cup) with regular tap water for drinking; group 4: pre-administrated with quetiapine (10 mg/kg/day in drinking water) for 1 week, then followed by 5 weeks of quetiapine treatment with cuprizone administration (cup+que).
(§2) To study the effect of quetiapine on the remyelination process, an additional two groups (6-8 animals/group) of mice were treated with 0.2% cuprizone in milled chow for 6 weeks, and then returned to a cuprizone-free diet (Matsushima and Morell, 2001). Upon resumption of the cuprizone-free diet, mice were fed with either vehicle (water) or quetiapine (10 mg/kg/day in water, que) for 2 weeks.

[2] = He et al., 2006; Martin et al., 2005; cited from earlier work
rats = details: He et al., 2005; cited from earlier work
C57BL/6 mice [3] = test system: C57BL/6 mice
Procedure: as §1, §2
At the end of their treatment period, mice were anaesthetized with pentobarbital sodium at 50 mg/kg and perfused intracardially with 0.01 M PBS followed by 4% paraformaldehyde in PBS, and the brains were post-fixated overnight in 4% paraformaldehyde. Brain tissues were then rinsed 3 times with 0.01 M PBS and cryoprotected in 30% sucrose at 4° C. for one day and frozen at −80° C. for immunostaining. Serial coronal sections were dissected between levels 1 to −1 mm bregma, as defined in the mouse brain atlas of Franklin and Paxinos (Franklin and Paxinos, 1997). Demyelination was evaluated in frozen sections (30 μm) of the corpus callosum using Luxol fast blue with periodic acid-Schiff reaction. Floating frozen sections (30 μm) were incubated with 0.3% of H2O2 in 0.01 M PBS for 30 min at room temperature (RT) for quenching endogenous peroxidase activity, then blocked with 10% goat serum/PBS or 10% rabbit serum (for MBP staining) for 1 hour at RT, and then incubated overnight with the primary antibody(s) diluted in the blocking solution. After rinsing, the sections were incubated with the appropriate biotin-conjugated secondary antibody (1:1000; Vector Laboratories, Burlingame, Calif.) for 1 hour at RT. Sections were then developed with the avidin biotin complex kit (Vector Laboratories, Burlingame, Calif.) and the antibodies were visualized with DAB chromogen (Sigma-Aldrich, St. Louis, Mo.).
A goat polyclonal antibody directed against MBP (1:250; Santa Cruz Biotechnology, CA) was used to detect myelin. A rabbit anti-pi isoform of glutathione S-transferase (GST-pi, 1:500; Stressgen, Victoria, BC, Canada) was used as a marker for mature oligodendrocytes (Mason et al., 2004); Ness et al., 2005). The rabbit polyclonal NG2 antibody (1:200; Chemicon, Temecula, Calif.) was used as a marker for oligodendrocyte progenitors (Nishiyama et al., 1996).
For GST-pi and NG2 quantification, three digital pictures from the coronal section from each animal (including the middle line and the two edges of the corpus callosum in each section) were examined. Cell counts are expressed as the mean number of positive cells counted in three coronal sections from two different areas, 500 μm apart, between 1 to −1 mm bregma, following the mouse brain atlas of Franklin and Paxinos (Franklin and Paxinos, 1997). Results are expressed as the average of at least 6 mice per group. For MBP staining analysis, three digital pictures from the coronal section (including cerebral cortex) of each animal were examined, at least 6 animals of each group.

PC 12 cell = details: serum withdrawal or addition of hydrogen peroxide, β-amyloid peptide or MPP+; cited from earlier work
[4] = test system: neural progenitor cell cultures; details: in vitro
BDNF = details: Xu et al., 2002; Luo et al., 2004; cited from earlier work
C57BL/6 mice [5] = test system: C57BL/6 mice; remark: listed apart in the source
Procedure: as §1, §2
Immediately after the locomotor activity test, spatial working memory was assessed by recording spontaneous alternation behavior in a Y-maze comprised of three 30-cm compartments marked as A, B, and C arms. Spontaneous alternation behavior is based on the natural tendency of rodents to explore a novel environment. In a Y-maze, mice tend to explore the maze by systematically entering each arm. For efficient alternation, mice are required to know which arms have already been visited. Therefore, alternation behavior can be regarded as a measure involving spatial working memory. […] Each mouse was placed at the end of one arm and allowed to move freely through the maze during an 8-min period. The total number and series of arm entries were recorded visually. The number of overlapping entrance sequences (e.g., ABC, BCA) was defined as the number of alternations. The effect was calculated as the percentage of alternation according to the following formula: Percent alternation=(number of alternations)/(total number of arm entries-2)×100 (Wall et al., 2002). Total entries were scored as an index of ambulatory activity in the Y-maze, and mice showing scores below six entries would be excluded.

[6] = 0.2% cuprizone 5 weeks with quetiapine co-administration vs. cuprizone alone
[7] = quetiapine alone with normal diet vs. control
[8] = 2 weeks of recovery from cuprizone, quetiapine 10 mg/kg/day in water vs. vehicle (water)

SMILES	locomotor activity (C57BL/6 mice [1])	memory deficits induced by phencyclidine and kainic acid [2]	short- and long-term behavioral consequences of chronic dl-amphetamine (rats)	loss of GST-pi+ mature oligodendrocytes in the corpus callosum (C57BL/6 mice [3]; 0.2% cuprizone 5 weeks with quetiapine co-administration)	demyelination in LFB-PAS staining (C57BL/6 mice [3]; [6])	number of NG2+ cells within the demyelinated areas (C57BL/6 mice [3]; [6])	reduction of demyelination in MBP staining (C57BL/6 mice [3]; [6]) [%]	remyelination in demyelinated lesions (MBP and LFB-PAS) (C57BL/6 mice [3]; 2-week recovery from cuprizone, quetiapine vs. vehicle (water))	NG2+ cells after recovery (C57BL/6 mice [3]; 2 weeks recovery from cuprizone, quetiapine vs. water)	GST-pi+ mature oligodendrocytes during remyelination (C57BL/6 mice [3]; 2 weeks recovery from demyelination, quetiapine vs. water, +p<0.05 vs. water)	NG2+ cells, quetiapine alone (C57BL/6 mice [3]; quetiapine alone with normal diet)	GST-pi+ cells, quetiapine alone (C57BL/6 mice [3]; [7])	myelination (MBP staining), quetiapine alone (C57BL/6 mice [3]; [7])	PC 12 cell death (PC 12 cell)	proliferation and differentiation of oligodendrocytes [4]	expression of BDNF in rat hippocampus after immobilization stress (BDNF)	total number of arm entries in Y-maze (C57BL/6 mice [5]; 0.2% cuprizone 5 weeks, co-administration of quetiapine 10 mg/kg/day p.o.)	impairment of spontaneous alternation behavior in the Y-maze (C57BL/6 mice [5]; 0.2% cuprizone 5 weeks, co-administration of quetiapine 10 mg/kg/day p.o., ++p<0.01 vs. cuprizone)	memory impairment in Y-maze during remyelination (C57BL/6 mice [5]; [8])	total arm entries in the Y-maze during remyelination (C57BL/6 mice [5]; [8])
OCCOCCN1CCN(C2=Nc3ccccc3Sc3ccccc32)CC1 [quetiapine]	no significant difference among groups	could reverse memory deficits	modulate the short- and long-term behavioral consequences	did not reverse the loss of mature oligodendrocytes	showed the same trend as MBP staining	dramatically decreased the number of NG2+ cells	35	no difference between the vehicle (water) and quetiapine treatment on remyelination	had little effect on this change	dramatically increased	Few NG2+ cells were observed	had no difference	show no difference on myelination	reduce the PC 12 cell death	promoted the proliferation and differentiation of oligodendrocytes	attenuate the immobilization stress-induced decrease in the expression of BDNF	decreased the rise of the total number of arm entries induced by cuprizone	significantly attenuated the impairment of spontaneous alternation behavior	did not appear to improve memory impairment	did not appear to improve memory impairment or alter the total arm entries
Cc1nc2n(c(=O)c1CCN1CCC(c3noc4cc(F)ccc34)CC1)CCCC2 [risperidone]														reduce the PC 12 cell death						
